Values of other authors, collected in patent US20230313389A1, “APPARATUS AND METHOD FOR THE ELECTROLYTIC PRODUCTION OF HYPOCHLOROUS ACID” (GROUPE OXWELL INC., priority 2020, published 2023).

Assays:
[1] = system: viruses, including coronaviruses; conditions: variety of viruses
[2] = under ideal conditions
[3] = as disinfectant

In the case of `OCl` [HOCl, Hypochlorous acid], the “time to inactivate viruses” value [1] is listed as “less than 1 minute”, the “shelf life (time HOCl is effective)” value [2] is listed as “up to 2 weeks” and the “effectiveness relative to chlorine in the form of ClO-” value [3] is listed as 100 times.
